From PMC11963566, “A phase I, single-center, randomized, open-label, three-period crossover study to evaluate the drug–drug interaction between ZSP1273 and oseltamivir in healthy Chinese subjects” (Antimicrobial Agents and Chemotherapy, 2025)
Where two headings read alike, the source gives them in different places.

Tests used:
[1] = clinical; details: human; for AUC(0-inf): AUC0-∞,ss
[2] = Safety assessment: adverse events (CTCAE 5.0, MedDRA 23.1) in healthy subjects; type: in vivo, human
Method: Safety assessment was conducted from the first administration of the investigational drug until the end of the trial. Safety indicators included adverse events (AEs), serious adverse events (SAEs), clinical laboratory tests (hematology, biochemistry, and urinalysis), vital signs, physical examination, and 12-lead electrocardiogram.
The severity of AE was assessed according to the CTCAE 5.0 standard and includes grades 1 to 5. Based on the criteria for determining causality between drugs and adverse events, the relationship was classified into five levels: definitely related, probably related, possibly related, probably not related, definitely not related. Among them, definitely related, probably related, and possibly related are defined as drug-related AEs.
Adverse events were coded using Med DRA 23.1 Chinese ([30]) and analyzed based on system organ class (SOC) and preferred term (PT). Adverse events during the treatment period, drug-related adverse events, and serious adverse events were described by frequency, number of cases (n), and incidence rate (%) according to SOC, PT, and the highest severity classification.

[3] = subjects with AUC_%Extrap >20.0% or Rsq <0.800 excluded
[4] = SOC Gastrointestinal disorders, probably related
[5] = SOC General disorders and administration site conditions, possibly related
[6] = SOC Infections and infestations, probably not related
[7] = SOC Investigations, possibly related
[8] = SOC Investigations, probably not related
[9] = SOC Skin and subcutaneous tissue disorders, possibly related
[10] = healthy subjects, 5 days dosing

SMILES: CCOC(=O)C1=C[C@@H](OC(CC)CC)[C@H](NC(C)=O)[C@@H](N)C1 [Oseltamivir, oseltamivir]
- AUC(0-t) ([1]; in vivo, AUC0-t,ss, geometric mean): 170 ng·h/mL
- AUC ([1]; in vivo, AUC0-τ,ss, geometric mean): 167 ng·h/mL
- AUC(0-inf) ([1]; in vivo, geometric mean): 175 ng·h/mL
- AUC(0-inf) ([1]; in vivo, geometric mean, monotherapy, subjects with AUC_%Extrap >20.0% or Rsq <0.800 excluded): 175 ng·h/mL
- Cmax ([1]; in vivo, Cmax,ss, geometric mean): 91.2 ng/mL
- Tmax ([1]; in vivo, po, Tmax,ss): 30 min
- Vd/F ([1]; in vivo, po, Vz/F): 3070 L
- half-life ([1]; in vivo, po, t1/2,ss): 270 ± 288 min
- AUC(0-inf) ([1]; plasma, oral, geometric mean, co-administration ZSP1273 + oseltamivir, plasma, day 5, all subjects): 163 ng·h/mL
- k el ([1]; plasma, po, 75 mg): 7.78e-05 s⁻¹
- AUC0-t,ss, geometric mean ratio co-administration/monotherapy (human, in vivo): 92.7%
- AUC0-τ,ss, geometric mean ratio co-administration/monotherapy (human, in vivo): 92.2%
- AUC0-∞,ss, geometric mean ratio co-administration/monotherapy (human, in vivo): 92.6%
- AUC0-∞,ss, intra-individual coefficient of variation (human, in vivo): 11.8%
- Cmax,ss, geometric mean ratio co-administration/monotherapy (human, in vivo): 60.1%
- decrease in Cmax,ss after co-administration (human, in vivo): 39.9%
- CLss/F (human, in vivo, po): 459.8 ± 106.3 (23.1%) L/h
- AUC0-∞,ss, geometric mean ratio co-administration/monotherapy [3]: 93.5%
- AUC0-∞,ss, intra-individual coefficient of variation [3]: 10.7%
- Gastrointestinal disorders (SOC): Cases (%) ([2]; AE by system organ class): 0 Cases (%)
- Gastrointestinal disorders (SOC): Occurrences ([2]; AE by system organ class): 0
- General disorders and administration site conditions (SOC): Cases (%) ([2]; AE by system organ class): 0 Cases (%)
- General disorders and administration site conditions (SOC): Occurrences ([2]; AE by system organ class): 0
- Infections and infestations (SOC): Cases (%) ([2]; AE by system organ class): 1 (2.9) Cases (%)
- Infections and infestations (SOC): Occurrences ([2]; AE by system organ class): 1
- Investigations (SOC): Cases (%) ([2]; AE by system organ class): 6 (17.6) Cases (%)
- Investigations (SOC): Occurrences ([2]; AE by system organ class): 12
- Skin and subcutaneous tissue disorders (SOC): Cases (%) ([2]; AE by system organ class): 1 (2.9) Cases (%)
- Skin and subcutaneous tissue disorders (SOC): Occurrences ([2]; AE by system organ class): 1
- Diarrhea: Cases (%) [2, 4]: 0 Cases (%)
- Diarrhea: Occurrences [2, 4]: 0
- Fever: Cases (%) [2, 5]: 0 Cases (%)
- Fever: Occurrences [2, 5]: 0
- Upper respiratory tract infection (URTI): Cases (%) [2, 6]: 1 (2.9) Cases (%)
- Upper respiratory tract infection (URTI): Occurrences [2, 6]: 1
- Decreased blood triglycerides: Cases (%) [2, 7]: 1 (2.9) Cases (%)
- Decreased blood triglycerides: Occurrences [2, 7]: 1
- Decreased high-density lipoprotein (HDL): Cases (%) [2, 7]: 2 (5.9) Cases (%)
- Decreased high-density lipoprotein (HDL): Occurrences [2, 7]: 2
- Decreased neutrophil count: Cases (%) [2, 7]: 0 Cases (%)
- Decreased neutrophil count: Occurrences [2, 7]: 0
- Increased blood cholesterol: Cases (%) [2, 7]: 0 Cases (%)
- Increased blood cholesterol: Occurrences [2, 7]: 0
- Increased blood creatinine: Cases (%) [2, 7]: 0 Cases (%)
- Increased blood creatinine: Occurrences [2, 7]: 0
- Increased blood triglycerides: Cases (%) [2, 7]: 1 (2.9) Cases (%)
- Increased blood triglycerides: Occurrences [2, 7]: 1
- Increased blood uric acid: Cases (%) [2, 7]: 1 (2.9) Cases (%)
- Increased blood uric acid: Occurrences [2, 7]: 1
- Increased gamma-glutamyl transferase (GGT): Cases (%) [2, 7]: 0 Cases (%)
- Increased gamma-glutamyl transferase (GGT): Occurrences [2, 7]: 0
- Increased lipase: Cases (%) [2, 7]: 0 Cases (%)
- Increased lipase: Occurrences [2, 7]: 0
- Increased low-density lipoprotein (LDL): Cases (%) [2, 7]: 0 Cases (%)
- Increased low-density lipoprotein (LDL): Occurrences [2, 7]: 0
- Crystals present in urine: Cases (%) [2, 8]: 1 (2.9) Cases (%)
- Crystals present in urine: Occurrences [2, 8]: 1
- Decreased hemoglobin: Cases (%) [2, 8]: 2 (5.9) Cases (%)
- Decreased hemoglobin: Occurrences [2, 8]: 2
- Increased urine specific gravity: Cases (%) [2, 8]: 1 (2.9) Cases (%)
- Increased urine specific gravity: Occurrences [2, 8]: 1
- Nitrites present in urine: Cases (%) [2, 8]: 1 (2.9) Cases (%)
- Nitrites present in urine: Occurrences [2, 8]: 1
- Positive urine occult blood: Cases (%) [2, 8]: 1 (2.9) Cases (%)
- Positive urine occult blood: Occurrences [2, 8]: 1
- Protein detected in urine: Cases (%) [2, 8]: 1 (2.9) Cases (%)
- Protein detected in urine: Occurrences [2, 8]: 1
- Acneiform dermatitis: Cases (%) [2, 9]: 1 (2.9) Cases (%)
- Acneiform dermatitis: Occurrences [2, 9]: 1
- Maculopapular rash: Cases (%) [2, 9]: 0 Cases (%)
- Maculopapular rash: Occurrences [2, 9]: 0
- increased blood triglycerides, incidence ([2]; drug-related adverse event): 2.9%
- At least one treatment-emergent adverse event (TEAE): Cases (%) [2, 10]: 7 (20.6) Cases (%)
- At least one treatment-emergent adverse event (TEAE): Occurrences [2, 10]: 14
- At least one treatment-emergent adverse event related to drugs: Cases (%) [2, 10]: 5 (14.7) Cases (%)
- At least one treatment-emergent adverse event related to drugs: Occurrences [2, 10]: 6
